Laboratory results from patent US20020183256A1, “Cytostatic-integrin conjugates having specifically cleavable linking units” (priority 2000, published 2002).
Where two headings read alike, the source gives them in different places. *1 amine or outer side, *2 acyl side, *3 side chain or, on linkers, in order; H or OH if unused. Where a SMILES comes first, the peptide text is derived from it. [ ]: non-standard residue; d: D form. The star is where a group is joined. Camptothecin(20R,20-O) = CC[C@]1(O*)C(=O)OCc2c1cc1n(c2=O)Cc2cc3ccccc3nc2-1; X2 = CCCNC(=O)Nc1cccc(S(=O)(=O)Nc2cccc(C(CC(=O)O)NC(=O)Nc3ccc(N*)cc3)c2)c1; X3 = O=C(Nc1cccc(-c2ccc(S(=O)(=O)*)cc2)c1)Nc1nc2ccccc2[nH]1; X5 = O=C(Nc1cccc(-c2cccc(S(=O)(=O)*)c2)c1)Nc1nc2ccccc2[nH]1; X1 = CCCNC(=O)Nc1cccc(S(=O)(=O)Nc2cccc(C(CC(=O)O)N*)c2)c1; NH(1,4-C6H4)NHCS = S=C(Nc1ccc(N[*:1])cc1)[*:2]; X4 = O=C(O)CC(N[*:1])c1cccc(NC(=S)[*:2])c1; CO = O=C([*:1])[*:2]; GABA = NCCCC(=O)O

What was measured:
SW 480 = test: Growth inhibition test (MTT), cytotoxic action on tumour cell lines; assay type: cell-based, human
Experimental: (§1) The human large intestine cell lines SW 480 and HT29 (ATCC No. CCL 228 and HTB38 and the mouse melanoma cell line B16F10 (CRL 6475) were grown to confluence in Roux dishes in RPMI 1640 medium with addition of 10% FCS. They were then trypsinized and taken up in RPMI plus 10% FCS to a cell count of 50,000 cells or, for B16F10, 20,000 cells per ml. 100 μl of cell suspension/well were added to a 96 microwell plate and incubated at 37° C. for 1 day in a CO2 incubator. A further 100 μl of RPMI medium and 1 μl of DMSO were then added with the test substances. The growth was checked after day 6. For this, 25 μl of MTT solution (3-(4,5-dimethylthiazol-2-yl)-2,5-diphenyltetrazolium bromide) was added to each well at a starting concentration of 5 mg/ml of H2O. The plate was incubated at 37° C. for 5 hours in a CO2 incubator. The medium was then aspirated and 100 μl of i-propanol/well were added. After shaking with 100 μl of H2O for 30 min, the extinction was measured at 595 nm using a Multiplate Reader (BIO-RAD) 3550-UV).
(§2) The cytostatic action is indicated in Table 2 as an IC50 value, in each case for the individual cell lines.

HT29 = test: as above; assay type: cell-based, human
Experimental: as §1, §2

MMP-2 = target: T1, MMP-2 (Homo sapiens, UniProt P08253); test: Cleavage of conjugates by MMP-2 in buffer (HPLC); assay type: biochemical; details: after 6 h incubation with MMP-2; buffer pH 7.5
T1 construct: purchased Calbiochem
T1 sequence (P08253 110-660): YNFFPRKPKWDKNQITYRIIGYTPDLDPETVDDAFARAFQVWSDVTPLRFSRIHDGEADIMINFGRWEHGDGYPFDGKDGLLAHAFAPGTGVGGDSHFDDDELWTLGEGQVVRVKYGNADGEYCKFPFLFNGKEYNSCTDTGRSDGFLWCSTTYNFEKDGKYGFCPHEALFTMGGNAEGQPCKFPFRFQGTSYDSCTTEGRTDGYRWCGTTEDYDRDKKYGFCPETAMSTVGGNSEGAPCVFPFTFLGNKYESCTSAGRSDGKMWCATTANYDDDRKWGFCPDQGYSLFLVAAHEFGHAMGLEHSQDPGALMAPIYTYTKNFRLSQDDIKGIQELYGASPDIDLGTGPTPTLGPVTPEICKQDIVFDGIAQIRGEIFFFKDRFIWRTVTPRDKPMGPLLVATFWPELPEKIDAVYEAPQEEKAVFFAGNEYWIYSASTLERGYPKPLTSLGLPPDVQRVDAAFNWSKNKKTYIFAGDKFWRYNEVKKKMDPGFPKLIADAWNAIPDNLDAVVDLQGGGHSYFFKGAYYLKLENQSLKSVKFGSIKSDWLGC
Experimental: 2.5 μl MMP-2 (Calbiochem) with a specific activity of 60 μU/μl are incubated with 10 nM of the conjugates exemplified in the example series 1-25 in 1 ml of a medium consisting of 50 mM Tris-HCl pH 7.5, 0.2 M NaCl, 10 mM CaCL2*2H2O and 0.05% Brij 35. The enzyme mediated cleavage of the conjugates is detected by HPLC analysis using an RP18 (5 μM) column with 70% HClO4/water (0.4% v/v) as eluent A and acentonitrile as eluent B (UV detection at […]). The efficiency of the cleavage is assessed by comparing the peak areas of the intact conjugate (starting material) and the cleavage product (tripeptide conjugate of camptothecin) after 6 h and 24 h incubation (cf. Table 5).

B16F10 = test: Growth inhibition test (MTT), cytotoxic action on tumour cell lines; assay type: cell-based, mouse
Experimental: as §1, §2

αvβ3 receptor = target: T2, αvβ3 receptor (Homo sapiens, UniProt P05106+P06756); test: αvβ3 binding test (echistatin displacement, WGA SPA beads); details: αvβ3 from human A375 cells
T2 construct: αvβ3 from human A375 cells was purified; endogenous in cells; host or cells: human A375 cells (receptor purified from the cells, analogous to Wong et al. 1996)
T2 sequence (P06756 31-889 limits assumed): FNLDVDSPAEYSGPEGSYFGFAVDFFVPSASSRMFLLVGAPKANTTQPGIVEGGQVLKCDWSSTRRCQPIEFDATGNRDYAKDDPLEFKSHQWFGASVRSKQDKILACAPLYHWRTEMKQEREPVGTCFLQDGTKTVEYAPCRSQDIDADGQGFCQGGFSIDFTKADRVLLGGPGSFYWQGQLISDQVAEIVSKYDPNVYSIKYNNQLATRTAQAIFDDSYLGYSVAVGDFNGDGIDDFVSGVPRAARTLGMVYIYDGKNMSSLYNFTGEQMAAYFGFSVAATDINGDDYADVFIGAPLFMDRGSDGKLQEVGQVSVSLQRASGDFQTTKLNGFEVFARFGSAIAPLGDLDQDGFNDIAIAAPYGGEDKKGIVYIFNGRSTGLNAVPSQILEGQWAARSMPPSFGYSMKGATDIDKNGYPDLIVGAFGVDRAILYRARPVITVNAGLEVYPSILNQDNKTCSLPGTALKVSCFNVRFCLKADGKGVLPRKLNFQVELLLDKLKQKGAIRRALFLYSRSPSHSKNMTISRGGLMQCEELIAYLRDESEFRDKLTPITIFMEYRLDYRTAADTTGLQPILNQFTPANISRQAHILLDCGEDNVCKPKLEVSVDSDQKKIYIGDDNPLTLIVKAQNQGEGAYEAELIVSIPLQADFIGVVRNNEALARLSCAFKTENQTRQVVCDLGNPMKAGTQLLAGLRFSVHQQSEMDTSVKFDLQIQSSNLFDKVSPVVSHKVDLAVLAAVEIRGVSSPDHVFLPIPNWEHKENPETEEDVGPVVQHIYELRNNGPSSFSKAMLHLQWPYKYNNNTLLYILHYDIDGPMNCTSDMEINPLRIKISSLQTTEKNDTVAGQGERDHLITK
T2 sequence (P06756 891-1048 partner limits assumed): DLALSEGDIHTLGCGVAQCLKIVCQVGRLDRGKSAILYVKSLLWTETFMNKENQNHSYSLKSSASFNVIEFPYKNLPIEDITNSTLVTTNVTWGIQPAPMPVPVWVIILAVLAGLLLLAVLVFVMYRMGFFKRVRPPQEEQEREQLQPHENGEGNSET
T2 sequence (P05106 27-788): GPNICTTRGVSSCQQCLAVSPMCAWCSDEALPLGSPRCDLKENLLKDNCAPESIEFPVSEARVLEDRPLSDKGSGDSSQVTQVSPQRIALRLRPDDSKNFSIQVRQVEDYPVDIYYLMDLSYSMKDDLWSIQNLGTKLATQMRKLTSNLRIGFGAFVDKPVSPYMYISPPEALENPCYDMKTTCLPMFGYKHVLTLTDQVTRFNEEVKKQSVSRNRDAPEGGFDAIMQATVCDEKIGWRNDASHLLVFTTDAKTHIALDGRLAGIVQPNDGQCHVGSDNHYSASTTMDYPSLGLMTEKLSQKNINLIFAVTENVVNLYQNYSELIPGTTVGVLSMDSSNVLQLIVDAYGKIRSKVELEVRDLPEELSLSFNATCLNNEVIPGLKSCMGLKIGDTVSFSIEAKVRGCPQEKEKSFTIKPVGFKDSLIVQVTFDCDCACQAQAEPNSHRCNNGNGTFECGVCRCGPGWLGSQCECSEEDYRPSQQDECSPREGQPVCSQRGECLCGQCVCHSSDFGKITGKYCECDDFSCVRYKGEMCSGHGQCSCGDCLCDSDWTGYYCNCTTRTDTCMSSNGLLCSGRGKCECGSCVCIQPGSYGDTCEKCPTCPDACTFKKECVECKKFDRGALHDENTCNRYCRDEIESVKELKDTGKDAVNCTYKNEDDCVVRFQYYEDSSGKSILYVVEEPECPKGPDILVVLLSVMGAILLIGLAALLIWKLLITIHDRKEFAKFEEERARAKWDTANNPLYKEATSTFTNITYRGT
Experimental: αvβ3 from human A375 cells was purified analogously to a procedure which was described by Wong et al. (Molecular Pharmacology, 50, 529-537 (1996)). In each case, 10 μl of αvβ3 (5 ng) in TBS pH 7.6, 2 mM CaCl2, 1 mM MgCl2, 1% n-octylglucopyranoside (Sigma); 10 μl of test substance in TBS pH 7.6, 0.1% DMSO and 45 μl of TBS pH 7.6, 2 mM CaCl2, 1 mM MgCl2, 1 mM MnCl2 were incubated at room temperature for 1 h. In each case, 25 μl of WGA SPA beads (Amersham, 4 mg/ml) and 10 μl of echistatin (0.1 μCi, Amersham, chloramine-T labelled) were then added. After 16 hours at room temperature, the samples were measured in a scintillation measuring apparatus (Wallac 1450).

[1] = read-out: IC50 values of the binding to the αvβ3 receptor
[2] = SW480, MTT after day 6, read-out: IC50 values of the cytotoxic action on tumour cell lines, SW480
[3] = HT29, MTT after day 6, read-out: IC50 values of the cytotoxic action on tumour cell lines, HT29
[4] = B16F10, MTT after day 6, read-out: IC50 values of the cytotoxic action on tumour cell lines, B16F10
[5] = IC50 values of the binding to the αvβ3 receptor

| SMILES | IC50 (SW 480; human, 6 days) [µM] | IC50 (HT29; human, 6 days) [µM] | MMP-2 mediated cleavage Peak area product/educt x100 (MMP-2) | IC50 (B16F10; mouse, 6 days) [µM] | IC50 (αvβ3 receptor; [1]) [µM] | IC50 (SW 480; [2]) [µM] | IC50 (HT29; [3]) [µM] | IC50 (B16F10; [4]) [µM] | IC50 (αvβ3 receptor; [5]) [µM] |
| --- | --- | --- | --- | --- | --- | --- | --- | --- | --- |
| CCCNC(=O)Nc1cccc(S(=O)(=O)Nc2cccc(C(CC(=O)O)NC(=O)Nc3ccc(NC(=S)N4CCC[C@@H]4C(=O)N[C@@H](CC(C)C)C(=O)NCC(=O)N[C@H](CC(C)C)C(=O)N[C@H](Cc4c[nH]cn4)C(=O)N[C@@H](C(=O)O[C@@]4(CC)C(=O)OCc5c4cc4n(c5=O)Cc5cc6ccccc6nc5-4)C(C)C)cc3)c2)c1 (single isomer, unassigned) [Example 3] | 0.15 | 0.2 | 25 | 0.6 | 0.045 |  |  |  |  |
| CCCNC(=O)Nc1cccc(S(=O)(=O)Nc2cccc(C(CC(=O)O)NC(=O)Nc3ccc(NC(=S)N4CCC[C@@H]4C(=O)N[C@@H](CC(C)C)C(=O)NCC(=O)N[C@H](CC(C)C)C(=O)N[C@H](CC(N)=O)C(=O)N[C@@H](C(=O)O[C@@]4(CC)C(=O)OCc5c4cc4n(c5=O)Cc5cc6ccccc6nc5-4)C(C)C)cc3)c2)c1 (single isomer, unassigned) [Example 11] | 0.15 | 0.2 | 20 | 0.4 | 0.3 |  |  |  |  |
| CC[C@]1(OC(=O)[C@H](NC(=O)[C@@H](Cc2c[nH]cn2)NC(=O)[C@@H](CC(C)C)NC(=O)CNC(=O)[C@H](CC(C)C)NC(=O)[C@H]2CCCN2C(=S)Nc2cccc(C(CC(=O)O)NS(=O)(=O)c3ccc(-c4cccc(NC(=O)Nc5nc6ccccc6[nH]5)c4)cc3)c2)C(C)C)C(=O)OCc2c1cc1n(c2=O)Cc2cc3ccccc3nc2-1 (stereo partly drawn) [Example 4] (X3-[X4][dP]LG[dL][dH][dV]-{Camptothecin(20R,20-O)}) |  |  | 6 |  |  | 0.07 | 0.09 | 0.4 | 0.15 |
| CC[C@]1(OC(=O)[C@H](NC(=O)[C@@H](Cc2c[nH]cn2)NC(=O)[C@@H](CC(C)C)NC(=O)CNC(=O)[C@H](CC(C)C)NC(=O)[C@H]2CCCN2C(=S)Nc2cccc(C(CC(=O)O)NS(=O)(=O)c3cccc(-c4cccc(NC(=O)Nc5nc6ccccc6[nH]5)c4)c3)c2)C(C)C)C(=O)OCc2c1cc1n(c2=O)Cc2cc3ccccc3nc2-1 (stereo partly drawn) [Example 5] (X5-[X4][dP]LG[dL][dH][dV]-{Camptothecin(20R,20-O)}) |  |  | 5 |  |  | 0.08 | 0.1 | 0.35 | 6 |
| CCCNC(=O)Nc1cccc(S(=O)(=O)Nc2cccc(C(CC(=O)O)NC(=O)Nc3ccc(NC(=O)N4CCC[C@@H]4C(=O)N[C@@H](CC(C)C)C(=O)NCC(=O)N[C@H](CC(C)C)C(=O)N[C@H](Cc4c[nH]cn4)C(=O)N[C@@H](C(=O)O[C@@]4(CC)C(=O)OCc5c4cc4n(c5=O)Cc5cc6ccccc6nc5-4)C(C)C)cc3)c2)c1 (stereo partly drawn) [Example 6] ({X2-CO}-[dP]LG[dL][dH][dV]-{Camptothecin(20R,20-O)}) |  |  | 33 |  |  | 0.05 | 0.04 | 0.15 | 0.06 |
| CCCNC(=O)Nc1cccc(S(=O)(=O)Nc2cccc(C(CC(=O)O)NC(=O)Nc3ccc(NC(=O)N4CCC[C@@H]4C(=O)N[C@@H](CC(C)C)C(=O)NCC(=O)N[C@H](CC(C)C)C(=O)N[C@H](CC(N)=O)C(=O)N[C@@H](C(=O)O[C@@]4(CC)C(=O)OCc5c4cc4n(c5=O)Cc5cc6ccccc6nc5-4)C(C)C)cc3)c2)c1 (stereo partly drawn) [Example 12] ({X2-CO}-[dP]LG[dL][dN][dV]-{Camptothecin(20R,20-O)}) |  |  | 70 |  |  | 0.04 | 0.03 | 0.15 | 0.3 |
| CCCNC(=O)Nc1cccc(S(=O)(=O)Nc2cccc(C(CC(=O)O)NC(=O)Nc3ccc(NC(=S)N4CCC[C@@H]4C(=O)N[C@@H](CC(C)C)C(=O)NCC(=O)N[C@H](CC(C)C)C(=O)N[C@H](CSC)C(=O)N[C@@H](C(=O)O[C@@]4(CC)C(=O)OCc5c4cc4n(c5=O)Cc5cc6ccccc6nc5-4)C(C)C)cc3)c2)c1 (stereo partly drawn) [Example 14] ({X1-CO}-[NH(1,4-C6H4)NHCS][dP]LG[dL][dC](Me)[dV]-{Camptothecin(20R,20-O)}) |  |  | 5 |  |  | 0.05 | 0.06 | 0.4 | 0.07 |
| CCCNC(=O)Nc1cccc(S(=O)(=O)Nc2cccc(C(CC(=O)O)NC(=O)Nc3ccc(NC(=O)NCCCC(=O)N4CCC[C@@H]4C(=O)N[C@@H](CC(C)C)C(=O)NCC(=O)N[C@H](CC(C)C)C(=O)N[C@H](Cc4c[nH]cn4)C(=O)N[C@@H](C(=O)O[C@@]4(CC)C(=O)OCc5c4cc4n(c5=O)Cc5cc6ccccc6nc5-4)C(C)C)cc3)c2)c1 (stereo partly drawn) [Example 17] ({X2-CO-GABA}-[dP]LG[dL][dH][dV]-{Camptothecin(20R,20-O)}) |  |  | 16 |  |  | 0.07 | 0.1 | 0.6 | 0.05 |
| CCCNC(=O)Nc1cccc(S(=O)(=O)Nc2cccc(C(CC(=O)O)NC(=O)Nc3ccc(NC(=O)NCCCC(=O)N4CCC[C@@H]4C(=O)N[C@@H](CC(C)C)C(=O)NCC(=O)N[C@H](CC(C)C)C(=O)N[C@H](CC(N)=O)C(=O)N[C@@H](C(=O)O[C@@]4(CC)C(=O)OCc5c4cc4n(c5=O)Cc5cc6ccccc6nc5-4)C(C)C)cc3)c2)c1 (stereo partly drawn) [Example 18] ({X2-CO-GABA}-[dP]LG[dL][dN][dV]-{Camptothecin(20R,20-O)}) |  |  | 51 |  |  | 0.035 | 0.025 | 0.07 | 0.02 |
